Laboratory results taken from patent US5411984A, “Water soluble analogs and prodrugs of taxol” (Virginia Tech Intellectual Properties, Inc., priority 1992, dated 1995).

Columns and labels:
[1] = Relative solubility by the 1-octanol and water partition method (UV absorption at 228 nm), taxol = 1
Experimental: In separate experiments, taxol derivative 4 and 2'-succinyl taxol (R=NaO2 CCH2 CH2 CO2) were dissolved in a mildly basic aqueous solution.
*Solubilities were determined by using the 1octanol and water partition
method.Sample concentrations in water were determined by UV absorptions a […]

[2] = test system: drug-refractory ovarian cancer; conditions: in vivo; cited from earlier work
[3] = test system: metastatic breast cancer; conditions: in vivo; cited from earlier work
[4] = Cremophor EL diluent, without prolonged infusion and premedication with antiallergic drugs; cited from earlier work
[5] = test system: tubulin; conditions: cited from earlier work
[6] = cited from earlier work
[7] = cited from earlier work; remark: listed apart in the source
[8] = Stability in pH 5 buffer / mildly acidic aqueous solution (HPLC or TLC, onset of cloudiness); type: physicochemical; conditions: method (b): 0.5 mg in 0.1 ml EtOH and 0.9 ml pH 5 buffer, room temperature
Experimental: **Stabilities were determined in pH 5 buffer solution by one of the two
methods indicated below.
(a) 9.5 mg of sample was dissolved in 0.2 ml of EtOH and 0.2 ml of pH 5
buffer solution and let stand at room temperature. The progress of
decomposition was checked by HPLC or TLC and observation of the onset of
(b) 0.5 mg of sample was dissolved in 0.1 ml of EtOH and 0.9 ml of pH 5
buffer solution, the other conditions were the same as in (a) above. All
samples were stable under these conditions for at least 24 hours. No
hydrolysis was detectable by HPLC or TLC during this time period.

[9] = Solubility in pure water; type: physicochemical
[10] = Magri and Kingston; cited from earlier work
[11] = test system: P-388; conditions: cited from earlier work

In the case of `CC(=O)O[C@H]1C(=O)[C@@]2(C)[C@H]([C@H](OC(=O)c3ccccc3)[C@]3(O)C[C@H](OC(=O)[C@H](O)[C@@H](NC(=O)c4ccccc4)c4ccccc4)C(C)=C1C3(C)C)[C@]1(OC(C)=O)CO[C@@H]1C[C@@H]2O` [Taxol], the “Relative Solubility (p')” value [1] is given as 1, the “clinical activity against drug-refractory ovarian cancer” value [2] is given as “excellent clinical activity” and the “clinical activity in metastatic breast cancer” value [3] is given as “active drug”. For the same molecule, the allergic reactions [4] was “severe allergic reactions and even death”, the “effect on depolymerization of tubulin” value [5] was “prevents depolymerization of the tubulin” and the “effect on microtubule / tubulin polymer formation” value [5] was “promotes formation of microtubules”. The “aqueous solubility” value [6] was “low water solubility”.

For `CC(=O)O[C@H]1C(=O)[C@@]2(C)[C@H]([C@H](OC(=O)c3ccccc3)[C@]3(O)C[C@H](OC(=O)[C@H](OC(=O)CCN)[C@@H](NC(=O)c4ccccc4)c4ccccc4)C(C)=C1C3(C)C)[C@]1(OC(C)=O)CO[C@@H]1C[C@@H]2O` [Compound 1, 2'-(β-alanyl)-taxol], the “in vivo activity” value [7] is given as “active in vivo” and the “aqueous solubility” value [6] is given as “increased water solubility”.

For `CC(=O)O[C@H]1C(=O)[C@@]2(C)[C@H]([C@H](OC(=O)c3ccccc3)[C@]3(O)C[C@H](OC(=O)[C@H](OC(=O)c4cc(C(=O)O)c(C(=O)O)cc4C(=O)O)[C@@H](NC(=O)c4ccccc4)c4ccccc4)C(C)=C1C3(C)C)[C@]1(OC(C)=O)CO[C@@H]1C[C@@H]2O` [Compound 9b, Taxol 2'-(trisodium 1,2,4,5-benzenetetracarboxylate)], the “times more water soluble than taxol” value ([1]; compared with taxol) was “more than 1500 times”, the “Stabilities at pH 5” value [8] was greater than 24 h and the solubility [9] was greater than 227 mg/mL.

For `CC(=O)O[C@H]1C(=O)[C@@]2(C)[C@H]([C@H](OC(=O)c3ccccc3)[C@]3(O)C[C@H](OC(=O)[C@H](O[Si](C)(C)C(C)(C)C)[C@@H](NC(=O)c4ccccc4)c4ccccc4)C(C)=C1C3(C)C)[C@]1(OC(C)=O)CO[C@@H]1C[C@@H]2O` [2'-(t-butyldimethylsilyl) taxol], the “biological activity” value [10] is given as “essentially inactive”.

For `CC(=O)O[C@H]1C(=O)[C@@]2(C)[C@H]([C@H](OC(=O)c3ccccc3)[C@]3(O)C[C@H](OC(=O)[C@H](OC(=O)CCC(=O)O)[C@@H](NC(=O)c4ccccc4)c4ccccc4)C(C)=C1C3(C)C)[C@]1(OC(C)=O)CO[C@@H]1C[C@@H]2O` [Compound 2, 2'-succinyltaxol], the “P-388 in vivo activity compared with taxol” value [11] is given as “diminished” and the “aqueous solubility” value [6] is given as “increased water solubility”.
